Test results as given in patent US6710017B2, “Compositions and methods for controlling algae in recirculating water systems” (Avecia, Inc., priority 2000, dated 2004).
Values after ≈ are worked out from the molar mass of the structure shown. Like-named read-outs stand apart in the source and are kept apart here.

Tests used:
[1] = Margin of exposure versus NOEL (estimated total daily dose to a child in a swimming pool); conditions: for Margin of Exposure vs NOEL (Target > 100): herbicides, Table A, ratio of NOEL to estimated daily dose, 10 ppm in pool water, child 22 kg, 3 hours per day; for Margin of Exposure vs NOEL: agricultural fungicides, Table B
Procedure: The herbicide preferably has a margin of exposure versus no observed effect level (“NOEL”) value of greater than 10, more preferably greater than 50, especially greater than 80, and more especially greater than 99. The margin of exposure versus NOEL is determined by estimating the total daily dose of the herbicide to a child in a swimming pool and determining the ratio of the NOEL to this. The total daily exposure may be estimated as follows. Oral exposure is estimated by assuming that the swimmer is in the water 3 hours per day, and that the swimmer ingests 50 milliliters of pool water per hour of swimming. It is also assumed that the herbicide will be present in the pool water at a concentration of 10 parts per million, equivalent to 10 milligrams per liter of pool water. The daily oral exposure is therefore estimated as the product of the swimming duration, the ingestion rate, and the concentration in the pool water. Dermal exposure is estimated by assuming the swimmer is in the water 3 hours per day, that the total body surface area, 8800 square centimeters, is immersed in the water, and that the herbicide permeates the skin at a rate, expressed in centimeters per hour, predicted by a model for skin permeation based on chemical structure, the Skinperm model, developed by W. F. ten Berge. A short description of the Skinperm model, can be accessed at: http://home.wxs.nl/˜wtberge/, which is incorporated herein by reference. The daily dermal exposure is then estimated as the product of the permeation rate, the concentration of the herbicide in the pool water (expressed in milligrams per cubic centimeter), the swimming duration, and the total body surface area. The total daily exposure is estimated as the sum of the daily oral and daily dermal exposure. The daily dose, expressed in milligrams per kilogram bodyweight per day, is then estimated as the total daily exposure divided by an assumed body weight of 22 kilograms.

[2] = water, cited from earlier work
[3] = Procedure: The margin of exposure versus NOEL is determined by estimating the total daily dose of the herbicide to a child in a swimming pool and determining the ratio of the NOEL to this. The total daily exposure may be estimated as follows. Oral exposure is estimated by assuming that the swimmer is in the water 3 hours per day, and that the swimmer ingests 50 milliliters of pool water per hour of swimming. It is also assumed that the herbicide will be present in the pool water at a concentration of 10 parts per million, equivalent to 10 milligrams per liter of pool water. The daily oral exposure is therefore estimated as the product of the swimming duration, the ingestion rate, and the concentration in the pool water. Dermal exposure is estimated by assuming the swimmer is in the water 3 hours per day, that the total body surface area, 8800 square centimeters, is immersed in the water, and that the herbicide permeates the skin at a rate, expressed in centimeters per hour, predicted by a model for skin permeation based on chemical structure, the Skinperm model, developed by W. F. ten Berge. A short description of the Skinperm model, can be accessed at: http://home.wxs.nl/˜wtberge/, which is incorporated herein by reference. The daily dermal exposure is then estimated as the product of the permeation rate, the concentration of the herbicide in the pool water (expressed in milligrams per cubic centimeter), the swimming duration, and the total body surface area. The total daily exposure is estimated as the sum of the daily oral and daily dermal exposure. The daily dose, expressed in milligrams per kilogram bodyweight per day, is then estimated as the total daily exposure divided by an assumed body weight of 22 kilograms.
The margin of exposure versus RfD is determined by estimating the total daily dose of the herbicide to a child in a swimming pool, as described above, and determining the ratio of the RfD to this (i.e. margin of exposure/RfD).

mustard algae [4] = test: Remedial laboratory study on algae, change in turbidity; conditions: for Change in Turbidity at active agent (ppm) five days post treatment: 5 ppm: 5 ppm active ingredient; for Change in Turbidity at active agent (ppm) five days post treatment: 5 ppm / Change in Turbidity at active agent (ppm) five days post treatment: 10 ppm: initial absorbance 0.10; for Change in Turbidity at active agent (ppm) five days post treatment: 10 ppm: 10 ppm active ingredient; for water turbidity: indicating killing of the mustard algae
[5] = agricultural fungicides, Table B
mustard algae [6] = test: Preventative laboratory study on algae, visual growth score
[7] = herbicides, Table A, 10 ppm in pool water, child 22 kg
[8] = agricultural fungicides, Table B

CC(C)N1C(=O)c2ccccc2NS1(=O)=O [Bentazon, 3-isopropyl-1H-2,1,3-benzothiadiazin-4(3H)-one 2,2-dioxide]
Margin of Exposure vs NOEL (Target > 100) [1]: 41
Solubility ([2]; herbicides, Table A): 2300 mg/1
Margin of Exposure vs. RfD (Target > 1) [3, 7]: 0.4

Nc1cnn(-c2ccccc2)c(=O)c1Cl [Chloridazon, 5-amino-4-chloro-2-phenyl-3(2H)-pyridazinone]
Change in Turbidity at active agent (ppm) five days post treatment: 5 ppm (mustard algae [4]; Table 2): +0.15
Change in Turbidity at active agent (ppm) five days post treatment: 10 ppm (mustard algae [4]; Table 2): +0.05
comments (Remedial Algae Control) (mustard algae [4]; Table 2): Algistatic. More
Solubility ([2]; herbicides, Table A): 340 mg/1

CC(C)(C)C(O)(CCc1ccc(Cl)cc1)Cn1cncn1 (stereo not drawn) [Tebuconazole, H-1,2,4-triazole-1-ethanol-alpha-[2-(4-chlorophenyl)-ethyl]-alpha-(1,1-dimethylethyl)]
Margin of Exposure vs. RfD [5]: 0.4
Score @ 10 ppm (mustard algae [6]; 10 ppm, visual score 0 to 4, 10 days, Table 3): 2
Score @ 15 ppm active ingredient (mustard algae [6]; 15 ppm, visual score 0 to 4, 10 days, Table 3): 1
Comments (Preventive Algae Control) (mustard algae [6]; Table 3, at 15 ppm): very little growth
Margin of Exposure vs NOEL [1]: 13
Turbidity @ 5 ppm active ingredient (Change in Turbidity at five days post treatment) (mustard algae [4]; 5 ppm, Table 4): +0.09
Turbidity @ 10 ppm active ingredient (Change in Turbidity at five days post treatment) (mustard algae [4]; 10 ppm, Table 4): +0.24
comments (Remedial Algae Control) (mustard algae [4]; Table 4): more effective

COC(=O)c1c(Cl)nn(C)c1S(=O)(=O)NC(=O)Nc1nc(OC)cc(OC)n1 [Halosulfuronmethyl, Methyl 5-{[(4,6-dimethoxy-2-pyrimidinyl)amino]carbonylaminosulfonyl}-3-chloro-1-methyl-1H-pyrazole-4-carboxylate]
Margin of Exposure vs NOEL (Target > 100) [1]: 133
Solubility ([2]; herbicides, Table A): 15 mg/1
Margin of Exposure vs. RfD (Target > 1) [3, 7]: 1.3

CCCOC(=O)NCCCN(C)C.Cl [Propamocarb, Propyl 3-(dimethylamino)propylcarbamate-hydrochloride]
Margin of Exposure vs. RfD [5]: 1.4
Margin of Exposure vs NOEL [1]: 438

CCCCc1c(C)nc(NCC)[nH]c1=O [Ethirimol, 5-butyl-2-ethylamino-6-methylpyrimidin-4-ol]
Solubility [2, 8]: 250 mg/L (≈ 1190 µM)

N#Cc1c[nH]cc1-c1cccc2c1OC(F)(F)O2 [Fludioxonil, 4-(2,2-difluoro-1,3-bezodioxol-4-yl)-1Hpyrrole-3-carbonitrile]
Margin of Exposure vs. RfD [5]: 0.4
Margin of Exposure vs NOEL [1]: 44

CC(C)(C)C(=O)C(Oc1ccc(Cl)cc1)n1cncn1 (stereo not drawn) [Triademefon, 1-(4-chlorophenoxy)-3,3-dimethyl-1-(1H-1,2,4-triazol-1-yl)-2-butanone]
Margin of Exposure vs. RfD [5]: 0.4
Margin of Exposure vs NOEL [1]: 104
Solubility [2, 8]: 260 mg/L (≈ 885 µM)

CC(C)(C)C(O)C(Oc1ccc(Cl)cc1)n1cncn1 (stereo not drawn) [Triademenol, Beta-(4-chlorophenoxy)-alpha-(1,1-dimethylethyl)-1-1H-1,2,4-triazole-1-ethanol]
Margin of Exposure vs. RfD [5]: 0.5
Margin of Exposure vs NOEL [1]: 50
Solubility [2, 8]: 260 mg/L (≈ 879 µM)

C=CCOC(Cn1ccnc1)c1ccc(Cl)cc1Cl (stereo not drawn) [Imazalil, 1-[2-(2,4-dichlorophenyl)-2-(2-propenyloxy)ethyl]-1H-imidazole]
Margin of Exposure vs. RfD [5]: 0.2
Margin of Exposure vs NOEL [1]: 17
Solubility [2, 8]: 1400 mg/L (≈ 4710 µM)

CC1(C)CON(Cc2ccccc2Cl)C1=O [Clomazone, 2-[(2-chlorophenyl)methyl]-4,4-dimethyl-3-isoxazolidinone]
Score @ ppm active agent: 0 (mustard algae [6]; 0 ppm, visual score 0 to 4, 10 days, 27° C.): 4
Score @ ppm active agent: 10 (mustard algae [6]; 10 ppm, visual score 0 to 4, 10 days, 27° C.): 4
Score @ ppm active agent: 15 (mustard algae [6]; 15 ppm, visual score 0 to 4, 10 days, 27° C.): 3
Comments (Preventive Algae Control) (mustard algae [6]; Table 1): heavy growth
Margin of Exposure vs NOEL (Target > 100) [1]: 41
Change in Turbidity at active agent (ppm) five days post treatment: 5 ppm (mustard algae [4]; Table 2): +0.10
Change in Turbidity at active agent (ppm) five days post treatment: 10 ppm (mustard algae [4]; Table 2): +0.10
Margin of Exposure vs. RfD (Target > 1) ([3]; human, 3 hours per day, 10 ppm): 0.02

CC(=O)O.CCCCCCCCCCCCNC(=N)N [Dodine, 1-dodecylguanidine acetate]
Margin of Exposure vs. RfD [5]: 0.02
Margin of Exposure vs NOEL [1]: 17
Change in Turbidity at active agent (ppm) five days post treatment: 5 ppm (mustard algae [4]; Table 2): −0.03
Change in Turbidity at active agent (ppm) five days post treatment: 10 ppm (mustard algae [4]; Table 2): −0.04
comments (Remedial Algae Control) (mustard algae [4]; Table 2): algicidal activity
water turbidity (mustard algae [4]; Table 2): decreased significantly

COC(=O)c1cccc(C)c1S(=O)(=O)NC(=O)Nc1nc(OCC(F)(F)F)nc(N(C)C)n1 [Triflusulfuronmethyl]
Margin of Exposure vs NOEL (Target > 100) [1]: 33
Change in Turbidity at active agent (ppm) five days post treatment: 5 ppm (mustard algae [4]; Table 2): +0.04
Change in Turbidity at active agent (ppm) five days post treatment: 10 ppm (mustard algae [4]; Table 2): +0.03
comments (Remedial Algae Control) (mustard algae [4]; Table 2): Algistatic.
Solubility ([2]; herbicides, Table A): 110-11000 mg/1

CC1=C(C(=O)Nc2ccccc2)SCCO1 [Carboxin, 5,6-dihydro-2-methyl-N-phenyl-1,4-oxathiin-3-carboxamide]
Margin of Exposure vs. RfD [5]: 1.2
Margin of Exposure vs NOEL [1]: 116
Change in Turbidity at active agent (ppm) five days post treatment: 5 ppm (mustard algae [4]; Table 2): 0.01
Change in Turbidity at active agent (ppm) five days post treatment: 10 ppm (mustard algae [4]; Table 2): −0.01
comments (Remedial Algae Control) (mustard algae [4]; Table 2): algicidal activity
water turbidity (mustard algae [4]; Table 2): decreased significantly

CO/C=C(/C(=O)OC)c1ccccc1Oc1cc(Oc2ccccc2C#N)ncn1 [Azoxystrobin, Methyl (E)-2-2-6-(2-cyanophenoxy)pyrimidin-4-yloxyphenyl-3-methoxyacrylate]
Margin of Exposure vs. RfD [5]: 2.4
Margin of Exposure vs NOEL [1]: 240
Solubility [2, 8]: 10 mg/L (≈ 24.8 µM)

COCC(=O)N(c1c(C)cccc1C)C(C)C(=O)OC (racemic) [Metalaxyl, N-(2,6-dimethylphenyl)-N-(methoxyacetyl)-DL-alaninemethyl ester]
Margin of Exposure vs. RfD [5]: 1
Margin of Exposure vs NOEL [1]: 98
Solubility [2, 8]: 8400 mg/L (≈ 30100 µM)

CCSC(=O)N(CC)C1CCCCC1 [Cycloate, S-ethyl cyclohexyl(ethyl)thiocarbamate]
Margin of Exposure vs. RfD [5]: 0.001
Margin of Exposure vs NOEL [1]: 1
Change in Turbidity at active agent (ppm) five days post treatment: 5 ppm (mustard algae [4]; Table 2): 0.00
Change in Turbidity at active agent (ppm) five days post treatment: 10 ppm (mustard algae [4]; Table 2): −0.01
comments (Remedial Algae Control) (mustard algae [4]; Table 2): algicidal activity
water turbidity (mustard algae [4]; Table 2): decreased significantly
